Reference: the METLIN SMRT retention time set (Domingo-Almenara et al. 2019)

Experiment: gradient 5% acetonitrile 3 min, to 50% in 2 min, to 85% in 15 min, held 3 min, 100 µL/min
Settings: column: Zorbax Extend-C18 2.1 x 50 mm; eluents: water / acetonitrile, 0.1% formic acid
Outline: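 The mobile phases were water and acetonitrile, each with 0.1% formic acid, pumped at 100 μL/min through a Zorbax Extend-C18 column (2.1 × 50 mm, 1.8 μm). Pure standards were injected as mixtures of ~100 molecules and detected by a quadrupole time-of-flight mass spectrometer in positive and negative ionization mode. Retention time came from computationally picked adduct peaks, each inspected by hand.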

| RP-LC retention time [s] | SMILES |
| --- | --- |
| 604 | CCN(CC)CCNC(=O)Cc1noc2ccc(C)cc12 |
| 1000 | CCS(=O)(=O)N1CC(=O)N(c2ccc(C)cc2C)C(C)(C(=O)NC2CCCCCC2)C1 (stereo not drawn) |
| 947 | CCc1ccc(-c2cc(C(F)(F)F)on2)cc1S(=O)(=O)Nc1ccc(S(N)(=O)=O)cc1 |
| 721 | CC1=C(c2ccccc2)S(=O)(=O)N=C1N1CCCN(C(=O)Cc2ccsc2)CC1 |
| 952 | CN1C(=O)c2cc(S(=O)(=O)Nc3cccc(Cl)c3)ccc2Oc2cccnc21 |
| 597 | O=C(CCc1nnc2ccc(N3CCCCC3)nn12)N1CCN(c2ccccn2)CC1 |
| 932 | Cc1cccc(OCc2nnc(SCC(=O)Nc3nc(-c4ccccc4)c(C)s3)o2)c1 |
| 680 | Cc1ccc(CNC(=O)NCC2Cn3cccc3C(=O)N2C)cc1 (stereo not drawn) |
| 1220 | CC(C)(C)c1csc(-c2csc(S(=O)(=O)NCc3ccc(F)cc3)c2)n1 |
| 566 | CCNC(=O)Nc1ccc2c(c1)CN(Cc1scnc1C)CCO2 |
| 600 | O=C(NCc1ccco1)c1coc(NC(=O)C2CC2)n1 |
| 722 | O=C1NCCOCCN(C(=O)Nc2ccc3c(c2)OCCO3)[C@@H]2CCCC[C@H]12 |
| 716 | CN1C(=O)Cc2ccccc2C1C(=O)NCc1cc(F)ccc1F (stereo not drawn) |
| 922 | COCCNc1c(-c2ccccc2)nc2sc(C(=O)N3CCCC3)c(C)n12 |
| 650 | CCCNC(=O)c1cc(C)nc2c(C)cc(C)cc12 |
| 719 | O=C(c1ccncc1)N1CCCn2nc(-c3ccc(Cl)cc3)cc2C1 |
| 570 | CC(C)COc1cc(=O)n2c(c1C(=O)NCCCN1CCOCC1)CCCCC2 |
| 711 | O=C(CN1CCC2(CC1)N=C(c1cccc(F)c1)C(=O)N2)Nc1ccc(Br)cc1F |
| 598 | CCOCC(=O)N1CCC2(CCC2O)CC1 (stereo not drawn) |

| RP-LC retention time [s] | SMILES |
| --- | --- |
| 1100 | COc1ccc(-c2nc(-c3ccc4c(c3)oc(=O)n4C)no2)c(C)c1 |
| 632 | Cc1sc2ccn(Cc3ccc(F)cc3)c(=O)c2c1C(=O)NCc1cccnc1 |
| 633 | CCCNC(=O)Cn1nc2cc(-c3ccc(OC)cc3)nc(C)n2c1=O |
| 780 | CCC(=O)N1CCN(c2ccc(=O)n(-c3ccc(C(C)C)cc3)n2)CC1 |
| 908 | Cc1ccccc1Nc1c(-c2ccc(Cl)cc2)nc2ncccn12 |
| 745 | O=C(NCc1ccco1)C(=O)NCC1OCCN1S(=O)(=O)c1ccc([N+](=O)[O-])cc1 (stereo not drawn) |
| 857 | Cc1ccc(CN2C[C@@H]3C(=O)N(Cc4ccc5c(c4)OCO5)C(=O)[C@@H]3C2)c(C)c1 |
| 733 | O=C(Cc1nnc(-c2ccc3ncccc3c2)o1)NCc1ccc(F)c(Cl)c1 |
| 1110 | O=C(Nc1cccc(F)c1)N1CC2CCCN2c2ccccc21 (stereo not drawn) |
| 1180 | Cc1cc(Cl)ccc1OCc1nc(-c2ccc(NS(=O)(=O)c3cccs3)cc2)no1 |
| 671 | CCC1CN2C=NC(N3CCN(C(=O)Nc4cccc(F)c4C)CC3)=CC2=N1 (stereo not drawn) |
| 1010 | O=C(Nc1ccc2c(c1)OCCO2)C(=O)c1cn(CC(=O)N2CCCCC2)c2ccccc12 |
| 948 | O=C(Nc1cc(-c2cccs2)no1)c1ccc(F)cc1 |
| 708 | O=S(=O)(Nc1ccc(Cn2cncn2)cc1)c1ccccc1Br |
| 891 | CCOC(=O)N1CCN(c2cnc3cc(S(=O)(=O)N4CCCCC4)ccc3n2)CC1 |
| 748 | Cc1cc(C2CCCN2C(=O)Nc2ccccc2C)on1 (stereo not drawn) |
| 636 | CC(C)C(=O)NCC12CCC=C1N(C)C(=O)CC2 (stereo not drawn) |
| 848 | Cc1cc(C)cc(NC(=O)C2CCc3nc(N4CCOCC4)ncc3C2)c1 (stereo not drawn) |
| 595 | Nc1cccc2c1CN(C1CCC(=O)NC1=O)C2=O (stereo not drawn) |
